{"source": "patent US20080286343A1", "about": "“Solid form” (priority 2007, published 2008)", "origin": "cited, not measured here", "details": "g water per 1 g active; slightly soluble"}
{"smiles": "Cn1c(=O)c2[nH]cnc2n(C)c1=O", "note": "[Theophylline]", "values": [{"measurement": "Solubility in water (1 g in ... g water)", "value": "100-1000 g water"}]}
